{
  "source": "paper PMC11984392",
  "about": "“EphA2-targeted alpha-particle theranostics for enhancing PDAC treatment” (Theranostics, 2025)",
  "assay": "Ex vivo biodistribution",
  "set-up": "species or system NSG mice",
  "settings": "both sexes, NSG, mouse, in vivo, iv, 80 uCi, total radioactivity, mean ± SEM (n = 4 or 5); for tissue uptake at 5 min / tissue to tissue ratio at 5 min: 5 min p.i.; for tissue uptake at 5 min / tissue uptake at 0.5 h / tissue uptake at 1 h / tissue uptake at 1.5 h / tissue uptake at 2 h: i.v.; for tissue to tissue ratio at 5 min / tissue to tissue ratio at 0.5 h / tissue to tissue ratio at 1 h / tissue to tissue ratio at 1.5 h: dimensionless; for tissue uptake at 0.5 h / tissue to tissue ratio at 0.5 h: 30 min p.i.; for tissue uptake at 1 h / tissue to tissue ratio at 1 h: 60 min p.i.; for tissue uptake at 1.5 h / tissue to tissue ratio at 1.5 h: 90 min p.i.; for tissue uptake at 2 h: 120 min p.i.",
  "protocol": "Animal studies were performed under Johns Hopkins University Animal Care and Use Committee (ACUC)-approved protocol (Principal investigator: Sridhar Nimmagadda, Ph.D. and Protocol number M021M175). Male and Female NSG mice (5-6 weeks old) were purchased from JHU immunocompromised core and used to establish xenografts by administering cells subcutaneously (top right flank, unless otherwise noted) to form various tumor models within 3-4 weeks. Following cell numbers were used: Panc1, AsPC1, BxPC3 (1 M), Hs766T and SU8686 (2 M), CFPAC and Panc1005 (5 M). Imaging or biodistribution studies (n = 3-5) were conducted on mice with tumor volumes of 100-200 mm^3. The Panc1 orthotopic tumor model was established by surgically implanting a 3-5 mm^3 section of Panc1 tumor xenograft directly onto the pancreas. The implanted tumors were allowed to grow and were ready for imaging after 10 days of implantation.\nMice with 100-200 mm^3 tumor volume were used for ex vivo biodistribution studies. For radiotracer pharmacokinetics and dosimetry studies, mice with Panc1 tumor xenograft received ~80 µCi (2.96 MBq) [^68Ga]AJ201 and were sacrificed at pre-determined time points (5, 30, 60, 90 and 120 min). All other mice were injected with ~50 µCi (1.85 MBq; 0.2 to 0.5 nmol) Ga-68 labeled radiotracer and were sacrificed at 60 min. The selected tissues were collected, weighed, counted, and their %ID/g values calculated for biodistribution analysis. For pharmacokinetics and dosimetry studies, selected tissues included blood, muscle, tumor, thymus, heart, lung, liver, pancreas, stomach, small intestine, large intestine, spleen, adrenals, kidney, bladder, femur, brain and tumor xenografts. For other studies, selected tissues were blood, muscle, tumor, heart, lung, liver, pancreas, small intestine, spleen, kidney.",
  "key": {"[1]": {"settings": "read-out: Stomach with contents uptake"}},
  "note": "Like-named read-outs stand apart in the source and are kept apart here. *1 amine or outer side, *2 acyl side, *3 side chain or, on linkers, in order; H or OH if unused. Where a SMILES comes first, the peptide text is derived from it. Bridges are numbered along the chain shown (N, C = ends). [ ]: non-standard residue; d: D form. The star is where a group is joined. TATA = O=C(CC[*:1])N1CN(C(=O)CC[*:2])CN(C(=O)CC[*:3])C1; NOTA = O=C(O)CN1CCN(CC(=O)O)CCN(CC(=O)*)CC1; Hyp = O=C(O)[C@@H]1C[C@@H](O)CN1; hArg = N=C(N)NCCCC[C@H](N)C(=O)O; PEG2 = NCCOCCOCCC(=O)O; Sar = CNCC(=O)O",
  "data": [
    {"molecule": "CC(C)C[C@@H]1NC(=O)[C@@H]2CSCCC(=O)N3CN(CN(C3)C(=O)CCSC[C@H](NC(=O)[C@H](CC(=O)O)NC(=O)[C@H](CCCCNC(=N)N)NC(=O)[C@H](C)NC(=O)CNC(=O)CN(C)C(=O)CN(C)C(=O)CN(C)C(=O)[C@H](CCCNC(=N)N)NC(=O)CNC(=O)CCOCCOCCNC(=O)CN3CCN(CC(=O)O)CCN(CC(=O)O)CC3)C(=O)N3C[C@H](O)C[C@H]3C(=O)N[C@@H](CC(C)C)C(=O)N[C@@H](C(C)C)C(=O)N[C@@H](CC(N)=O)C(=O)N3CCC[C@H]3C(=O)N[C@@H](CC(C)C)C(=O)N2)C(=O)CCSC[C@@H](C(N)=O)NC(=O)[C@H](CCCCNC(=N)N)NC(=O)[C@H](Cc2c[nH]c3ccccc23)NC(=O)[C@@H](CC(=O)O)NC(=O)[C@@H]2CCCN2C(=O)[C@H](Cc2c[nH]cn2)NC1=O", "note": "[[^68Ga]AJ201, metal not drawn] ({NOTA-PEG2}-GR[Sar][Sar][Sar]GA[hArg]DC[Hyp]LVNPLCLHP[dD]W[hArg]C-NH2; linker 10-17-24 via TATA)", "values": [
      {"measurement": "tissue uptake at 5 min", "setting": "read-out: Blood uptake", "result": "8.2 ± 0.92", "unit": "%ID/g"},
      {"measurement": "tissue uptake at 5 min", "setting": "read-out: Brain uptake", "result": "0.4 ± 0.08", "unit": "%ID/g"},
      {"measurement": "tissue uptake at 5 min", "setting": "read-out: Heart uptake", "result": "4.19 ± 1.06", "unit": "%ID/g"},
      {"measurement": "tissue uptake at 5 min", "setting": "read-out: Liver uptake", "result": "4.25 ± 0.99", "unit": "%ID/g"},
      {"measurement": "tissue uptake at 5 min", "setting": "read-out: Lung uptake", "result": "8.24 ± 0.93", "unit": "%ID/g"},
      {"measurement": "tissue uptake at 5 min", "setting": "read-out: Muscle uptake", "result": "1.79 ± 0.24", "unit": "%ID/g"},
      {"measurement": "tissue uptake at 5 min", "setting": "read-out: Pancreas uptake", "result": "3.24 ± 0.08", "unit": "%ID/g"},
      {"measurement": "tissue uptake at 5 min", "setting": "[1]", "result": "1.8 ± 0.39", "unit": "%ID/g"},
      {"measurement": "tissue uptake at 5 min", "setting": "read-out: Thymus uptake", "result": "4.61 ± 0.51", "unit": "%ID/g"},
      {"measurement": "tissue uptake at 5 min", "setting": "read-out: Tumor uptake", "result": "7.06 ± 0.48", "unit": "%ID/g"},
      {"measurement": "tissue to tissue ratio at 5 min", "setting": "read-out: Tumor/Muscle ratio", "result": "4.12 ± 0.66"},
      {"measurement": "tissue to tissue ratio at 5 min", "setting": "read-out: Tumor/Pancreas ratio", "result": "2.18 ± 0.14"},
      {"measurement": "tissue to tissue ratio at 5 min", "setting": "read-out: Tumor/blood ratio", "result": "0.89 ± 0.14"},
      {"measurement": "tissue uptake at 0.5 h", "setting": "read-out: Blood uptake", "result": "1.61 ± 0.18", "unit": "%ID/g"},
      {"measurement": "tissue uptake at 0.5 h", "setting": "read-out: Brain uptake", "result": "0.09 ± 0.01", "unit": "%ID/g"},
      {"measurement": "tissue uptake at 0.5 h", "setting": "read-out: Heart uptake", "result": "0.97 ± 0.15", "unit": "%ID/g"},
      {"measurement": "tissue uptake at 0.5 h", "setting": "read-out: Liver uptake", "result": "1.15 ± 0.19", "unit": "%ID/g"},
      {"measurement": "tissue uptake at 0.5 h", "setting": "read-out: Lung uptake", "result": "2.29 ± 0.26", "unit": "%ID/g"},
      {"measurement": "tissue uptake at 0.5 h", "setting": "read-out: Muscle uptake", "result": "1.11 ± 0.34", "unit": "%ID/g"},
      {"measurement": "tissue uptake at 0.5 h", "setting": "read-out: Pancreas uptake", "result": "0.74 ± 0.1", "unit": "%ID/g"},
      {"measurement": "tissue uptake at 0.5 h", "setting": "[1]", "result": "0.77 ± 0.31", "unit": "%ID/g"},
      {"measurement": "tissue uptake at 0.5 h", "setting": "read-out: Thymus uptake", "result": "2.35 ± 0.66", "unit": "%ID/g"},
      {"measurement": "tissue uptake at 0.5 h", "setting": "read-out: Tumor uptake", "result": "6.96 ± 0.31", "unit": "%ID/g"},
      {"measurement": "tissue to tissue ratio at 0.5 h", "setting": "read-out: Tumor/Muscle ratio", "result": "6.4 ± 3.6"},
      {"measurement": "tissue to tissue ratio at 0.5 h", "setting": "read-out: Tumor/Pancreas ratio", "result": "7.08 ± 2.57"},
      {"measurement": "tissue to tissue ratio at 0.5 h", "setting": "read-out: Tumor/blood ratio", "result": "3.31 ± 1.17"},
      {"measurement": "tissue uptake at 1 h", "setting": "read-out: Blood uptake", "result": "0.49 ± 0.07", "unit": "%ID/g"},
      {"measurement": "tissue uptake at 1 h", "setting": "read-out: Brain uptake", "result": "0.04 ± 0.01", "unit": "%ID/g"},
      {"measurement": "tissue uptake at 1 h", "setting": "read-out: Heart uptake", "result": "0.29 ± 0.08", "unit": "%ID/g"},
      {"measurement": "tissue uptake at 1 h", "setting": "read-out: Liver uptake", "result": "0.32 ± 0.02", "unit": "%ID/g"},
      {"measurement": "tissue uptake at 1 h", "setting": "read-out: Lung uptake", "result": "0.65 ± 0.04", "unit": "%ID/g"},
      {"measurement": "tissue uptake at 1 h", "setting": "read-out: Muscle uptake", "result": "0.21 ± 0.05", "unit": "%ID/g"},
      {"measurement": "tissue uptake at 1 h", "setting": "read-out: Pancreas uptake", "result": "0.16 ± 0.01", "unit": "%ID/g"},
      {"measurement": "tissue uptake at 1 h", "setting": "[1]", "result": "0.15 ± 0.03", "unit": "%ID/g"},
      {"measurement": "tissue uptake at 1 h", "setting": "read-out: Tumor uptake", "result": "4.68 ± 0.25", "unit": "%ID/g"},
      {"measurement": "tissue to tissue ratio at 1 h", "setting": "read-out: Tumor/Muscle ratio", "result": "25.8 ± 6.71"},
      {"measurement": "tissue to tissue ratio at 1 h", "setting": "read-out: Tumor/Pancreas ratio", "result": "28.8 ± 0.97"},
      {"measurement": "tissue to tissue ratio at 1 h", "setting": "read-out: Tumor/blood ratio", "result": "9.86 ± 1.1"},
      {"measurement": "tissue uptake at 1.5 h", "setting": "read-out: Blood uptake", "result": "1.18 ± 0.27", "unit": "%ID/g"},
      {"measurement": "tissue uptake at 1.5 h", "setting": "read-out: Brain uptake", "result": "0.05 ± 0.01", "unit": "%ID/g"},
      {"measurement": "tissue uptake at 1.5 h", "setting": "read-out: Femur uptake", "result": "0.68 ± 0.11", "unit": "%ID/g"},
      {"measurement": "tissue uptake at 1.5 h", "setting": "read-out: Heart uptake", "result": "0.76 ± 0.13", "unit": "%ID/g"},
      {"measurement": "tissue uptake at 1.5 h", "setting": "read-out: Liver uptake", "result": "0.9 ± 0.17", "unit": "%ID/g"},
      {"measurement": "tissue uptake at 1.5 h", "setting": "read-out: Lung uptake", "result": "1.4 ± 0.27", "unit": "%ID/g"},
      {"measurement": "tissue uptake at 1.5 h", "setting": "read-out: Muscle uptake", "result": "0.37 ± 0.11", "unit": "%ID/g"},
      {"measurement": "tissue uptake at 1.5 h", "setting": "read-out: Pancreas uptake", "result": "0.57 ± 0.15", "unit": "%ID/g"},
      {"measurement": "tissue uptake at 1.5 h", "setting": "[1]", "result": "0.27 ± 0.06", "unit": "%ID/g"},
      {"measurement": "tissue uptake at 1.5 h", "setting": "read-out: Thymus uptake", "result": "1.64 ± 0.42", "unit": "%ID/g"},
      {"measurement": "tissue uptake at 1.5 h", "setting": "read-out: Tumor uptake", "result": "6.04 ± 1.46", "unit": "%ID/g"},
      {"measurement": "tissue to tissue ratio at 1.5 h", "setting": "read-out: Tumor/Muscle ratio", "result": "17 ± 2.11"},
      {"measurement": "tissue to tissue ratio at 1.5 h", "setting": "read-out: Tumor/Pancreas ratio", "result": "10.7 ± 0.2"},
      {"measurement": "tissue to tissue ratio at 1.5 h", "setting": "read-out: Tumor/blood ratio", "result": "5.43 ± 1.32"},
      {"measurement": "tissue uptake at 2 h", "setting": "read-out: Blood uptake", "result": "0.9 ± 0.29", "unit": "%ID/g"},
      {"measurement": "tissue uptake at 2 h", "setting": "read-out: Brain uptake", "result": "0.05 ± 0.01", "unit": "%ID/g"},
      {"measurement": "tissue uptake at 2 h", "setting": "read-out: Femur uptake", "result": "0.83 ± 0.33", "unit": "%ID/g"},
      {"measurement": "tissue uptake at 2 h", "setting": "read-out: Heart uptake", "result": "0.68 ± 0.17", "unit": "%ID/g"},
      {"measurement": "tissue uptake at 2 h", "setting": "read-out: Liver uptake", "result": "0.84 ± 0.13", "unit": "%ID/g"},
      {"measurement": "tissue uptake at 2 h", "setting": "read-out: Lung uptake", "result": "1.15 ± 0.22", "unit": "%ID/g"},
      {"measurement": "tissue uptake at 2 h", "setting": "read-out: Muscle uptake", "result": "0.26 ± 0.04", "unit": "%ID/g"},
      {"measurement": "tissue uptake at 2 h", "setting": "read-out: Pancreas uptake", "result": "0.36 ± 0.07", "unit": "%ID/g"}
    ]}
  ]
}
